IC50 data for 38 compounds are collected here from BindingDB's records for patent US11814384 (Kinnate Biopharma, 2023).

“Also recorded” adds a separate entry of the source.

Sequence of Serine/threonine-protein kinase B-raf (P15056 whole entry): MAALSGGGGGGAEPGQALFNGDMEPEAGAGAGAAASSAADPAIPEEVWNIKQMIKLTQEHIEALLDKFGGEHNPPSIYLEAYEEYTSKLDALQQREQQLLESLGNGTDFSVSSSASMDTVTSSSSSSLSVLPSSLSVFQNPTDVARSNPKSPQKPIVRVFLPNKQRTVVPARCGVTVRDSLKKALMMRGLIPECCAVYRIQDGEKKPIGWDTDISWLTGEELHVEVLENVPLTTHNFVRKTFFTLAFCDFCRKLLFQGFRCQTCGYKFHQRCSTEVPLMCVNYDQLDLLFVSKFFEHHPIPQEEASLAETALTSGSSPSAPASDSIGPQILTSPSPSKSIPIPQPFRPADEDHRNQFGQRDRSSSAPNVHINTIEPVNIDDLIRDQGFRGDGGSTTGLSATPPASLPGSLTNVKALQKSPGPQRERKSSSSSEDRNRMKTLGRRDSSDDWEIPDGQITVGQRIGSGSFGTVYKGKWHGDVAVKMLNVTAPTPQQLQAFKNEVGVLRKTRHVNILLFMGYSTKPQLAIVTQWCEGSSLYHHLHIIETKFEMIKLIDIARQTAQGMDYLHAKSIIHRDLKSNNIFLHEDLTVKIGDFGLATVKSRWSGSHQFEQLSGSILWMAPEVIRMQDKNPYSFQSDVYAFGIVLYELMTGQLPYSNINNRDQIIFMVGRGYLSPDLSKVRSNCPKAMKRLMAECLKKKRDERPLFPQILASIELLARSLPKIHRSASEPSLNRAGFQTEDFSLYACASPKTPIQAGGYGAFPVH

This experiment addresses Serine/threonine-protein kinase B-raf (Homo sapiens, UniProt P15056). Nature of the experiment: Enzymatic BRAF Kinase Activity Assay. As for the experimental part: Small molecule inhibition of the BRAF kinases was measured using ADP-Glo assay. In the assay, […], resulting in luciferase reaction and luminescent readout with light generated proportional to the relative kinase activity. Compounds diluted in DMSO were used in 10-point, 3-fold dose curve for both assays. Final concentrations of 6 nM BRAF (CarnaBio, Cat. 09-122) or 3 nM RAF1 (CarnaBio, Cat. 09-125) and 30 nM MEK1 substrate (Millipore, Cat. 14-420) were incubated with 3 µM ATP, 10 mM MgCl2, 0.003% Brij-35, 2 mM DTT, 0.05% BSA, 1 mM EGTA, and 50 mM HEPES for 90 minutes at room temp prior to addition of ADP-Glo reagent (Promega, Cat. V9102) for 40 minutes, and detection reagent for 45 minutes. Luminescence was read on an Envision plate reader (PerkinElmer) and percent remaining activity was used to calculate IC50 using a four-parameter fit model using Dotmatics Knowledge Solutions Studies curve fitting (Dotmatics, Bishops Stortford, UK, CM23).
As a reminder, the IC50 is the concentration needed to halve the response being measured. Higher therefore signals weaker potency in that assay. On to `Cc1cc(F)c(NC(=O)N2CC[C@@H](CC(F)(F)F)C2)cc1-c1cc(N2CCOCC2)c2nn(C)cc2c1` [US11814384, Example 1], for which the IC50 result is “in the range around 5.5 nM”.

On to `Cc1cc(F)c(NC(=O)N2CC[C@@H](CC(F)(F)F)C2)cc1-c1cc(N2CCOCC2)c2nn(C)c(C)c2c1` [US11814384, Example 16], for which the IC50 result is “in the range around 5.5 nM”.

On to `Cc1cc(F)c(NC(=O)N2CC[C@@H](CC(F)(F)F)C2)cc1-c1cc(N2CCOCC2)c2nccn2c1` [US11814384, Example 17], for which the IC50 entry was “in the range around 5.5 nM”.

Compound `Cc1cc(F)c(NC(=O)N2CC=C(C(F)(F)C(F)(F)F)C2)cc1-c1cc(N2CCOCC2)c2nccn2c1` [US11814384, Example 22] yielded an IC50 of 1 to 10 nM.

Consider `Cc1cc(F)c(NC(=O)N2CCC(C(F)(F)C(F)(F)F)C2)cc1-c1cc(N2CCOCC2)c2nccn2c1` (stereo not drawn) [US11814384, Example 23], for which the IC50 fell in the range of 1 to 10 nM.

As for `Cc1ccc(NC(=O)c2ccnc(C(F)(F)F)c2)cc1-c1cc(N2CCOCC2)c2nc3c(n2c1)COCC3` [US11814384, Example 33], the half-maximal inhibitory concentration (IC50) result was “in the range around 5.5 nM”.

Regarding `Cc1ccc(NC(=O)c2ccnc(C(F)(F)F)c2)cc1-c1cc(N2CCOCC2)c2nc3c(n2c1)CC(O)CC3` (stereo not drawn) [US11814384, Example 34], the IC50 is 1 to 10 nM.

On to `Cc1ccc(NC(=O)c2ccnc(C(F)(F)F)c2)cc1-c1cc(N2CCOCC2)c2nc3c(n2c1)CCOC3` [US11814384, Example 36], for which the IC50 result is “in the range around 5.5 nM”.

Turning to `Cc1ccc(NC(=O)N2CC[C@@H](CC(F)(F)F)C2)cc1-c1cc(N2CC3CCC(C2)O3)c2nccn2c1` [US11814384, Example 38], the IC50 entry was “in the range around 5.5 nM”.

Regarding `Cc1cc(F)c(NC(=O)c2ccn(C(C)(C)C)c2)cc1-c1cc(N2CCOCC2)c2nccn2c1` [US11814384, Example 43], the IC50 result is “in the range around 5.5 nM”.

Take `Cc1cc(F)c(NC(=O)[C@@H]2CCN(CC(F)(F)F)C2)cc1-c1cc(N2CCOCC2)c2nccn2c1` [US11814384, Example 46]: the IC50 entry was “in the range around 5.5 nM”.

For the compound `Cc1cc(F)c(NC(=O)N2CCOC(C(C)(C)C)C2)cc1-c1cc(N2CCOCC2)c2nccn2c1` (stereo not drawn) [US11814384, Example 50], the IC50 entry was “in the range around 5.5 nM”.

In the case of `Cc1cc(F)c(NC(=O)N2CCC(C3(C(F)(F)F)CC3)C2)cc1-c1cc(N2CCOCC2)c2nccn2c1` (stereo not drawn) [US11814384, Example 60], the IC50 result was “in the range around 5.5 nM; also recorded: in the range around 55 nM”.

In the case of `Cc1cc(F)c(NC(=O)c2cn(C(C)(C)C)cc2F)cc1-c1cc(N2CCOCC2)c2nccn2c1` [US11814384, Example 66], the IC50 result was “in the range around 5.5 nM”.

As to `Cc1cc(F)c(NC(=O)c2cn(C(C)(C)C)cn2)cc1-c1cc(N2CCOCC2)c2nccn2c1` [US11814384, Example 67], the IC50 result was “in the range around 5.5 nM”.

As for `Cc1cc(F)c(NC(=O)N2CC=C(C3(C)CC3)C2)cc1-c1cc(N2CCOCC2)c2nccn2c1` [US11814384, Example 69], the IC50 entry was “in the range around 5.5 nM”.

As to `Cc1cc(F)c(NC(=O)c2cncc(C(F)(F)F)c2)cc1-c1cc(N2CCOCC2)c2nccn2c1` [US11814384, Example 70], the IC50 result is “in the range around 5.5 nM”.

`Cc1ccc(NC(=O)c2cnn(C(C)(C)C)c2F)cc1-c1cc(N2CCOCC2)c2nccn2c1` [US11814384, Example 73]: the IC50 result is “in the range around 5.5 nM”.

On to `Cc1cc(F)c(NC(=O)N2CCC(C(C)(C)C(F)(F)F)C2)cc1-c1cc(N2CCOCC2)c2nccn2c1` (stereo not drawn) [US11814384, Example 74], for which the IC50 result was “in the range around 5.5 nM”.

`CCc1nc2cc(-c3cc(C(=O)Nc4cn(C(C)(C)C)nc4F)c(F)cc3C)cc(N3CCOCC3)n2n1` [US11814384, Example 76]: the IC50 result is “in the range around 5.5 nM”.

With `Cc1cc(F)c(NC(=O)c2cncc(C(C)(F)F)c2)cc1-c1cc(N2CCOCC2)c2nccn2c1` [US11814384, Example 84], the IC50 entry was “in the range around 5.5 nM”.

As to `Cc1cc(F)c(NC(=O)c2cn(C(C)(C)C)nn2)cc1-c1cc(N2CCOCC2)c2nccn2c1` [US11814384, Example 86], the IC50 entry was “in the range around 5.5 nM”.

As for `Cc1cc(F)c(NC(=O)N2CCC(C(C)C(F)F)C2)cc1-c1cc(N2CCOCC2)c2nccn2c1` (stereo not drawn) [US11814384, Example 87], the IC50 result was “in the range around 5.5 nM; also recorded: in the range around 55 nM”.

For the compound `Cc1ccc(NC(=O)c2cc(C(C)(C)C)ncc2F)cc1-c1cc(N2CCOCC2)c2nccn2c1` [US11814384, Example 95], the IC50 result was “in the range around 55 nM”.

Turning to `CC(C)(C)n1ncc(C(=O)Nc2cc(-c3cc(N4CCOCC4)c4nccn4c3)c(Cl)cc2F)c1F` [US11814384, Example 98], the IC50 entry was “in the range around 5.5 nM”.

Consider `O=C(Nc1cc(-c2cc(N3CCOCC3)c3nccn3c2)c(F)cc1F)N1CC[C@@H](CC(F)(F)F)C1` [US11814384, Example 99], for which the IC50 result was “in the range around 55 nM”.

Turning to `Cc1cc(F)c(NC(=O)c2cnn(C(C)(C)C)c2F)cc1-c1cc(N2CCOCC2)c2nccn2c1` [US11814384, Example 103], the concentration for half-maximal inhibition (IC50) entry was “in the range around 5.5 nM”.

With `CC(C)(C)n1ncc(C(=O)Nc2ccc(Cl)c(-c3cc(N4CCOCC4)c4nccn4c3)c2)c1F` [US11814384, Example 110], the IC50 result was “in the range around 5.5 nM”.

For `Cc1cc(F)c(NC(=O)c2cnn(C(C)(C)C)c2F)cc1-c1cc(N2CCOCC2)c2ncc(F)n2c1` [US11814384, Example 111], the IC50 result was “in the range around 55 nM”.

Turning to `Cc1cc(F)c(N)cc1-c1cc(N2CCOCC2)c2nccn2c1` [US11814384, Example 112], the IC50 result was “in the range around 55 nM”.

For the compound `Cc1cc(F)c(NC(=O)c2ccnc(C(C)C(F)F)c2)cc1-c1cc(N2CCOCC2)c2nccn2c1` (stereo not drawn) [US11814384, Example 113], the IC50 result was “in the range around 5.5 nM”.

As to `Cc1cc(F)c(NC(=O)c2cn(C(C)(C)C)c(F)n2)cc1-c1cc(N2CCOCC2)c2nccn2c1` [US11814384, Example 118], the IC50 entry is “in the range around 5.5 nM”.

On to `Cc1cc(F)c(NC(=O)N2CC(F)C(C(C)C)C2)cc1-c1cc(N2CCOCC2)c2nccn2c1` (stereo not drawn) [US11814384, Example 119], for which the IC50 result is “in the range around 5.5 nM”.

As to `Cc1cc(F)c(NC(=O)c2cnn(C(C)(C)C(F)F)c2)cc1-c1cc(N2CCOCC2)c2nccn2c1` [US11814384, Example 124], the IC50 entry is “in the range around 5.5 nM”.

As to `Cc1cc(F)c(NC(=O)c2cnn(C(F)C(C)(C)F)c2)cc1-c1cc(N2CCOCC2)c2nccn2c1` (stereo not drawn) [US11814384, Example 125], the IC50 result is “in the range around 5.5 nM”.

As for `Cc1cc(F)c(NC(=O)c2cnn(C(C)(C)C(F)(F)F)c2)cc1-c1cc(N2CCOCC2)c2nccn2c1` [US11814384, Example 136], the IC50 entry was “in the range around 5.5 nM”.

Take `Cc1ncc(NC(=O)c2cnn(C(C)(C)C)c2F)cc1-c1cc(N2CCOCC2)c2nccn2c1` [US11814384, Example 137]: the IC50 result is “in the range around 5.5 nM”.

Regarding `Cc1cnc(NC(=O)c2cnn(C(C)(C)C)c2F)cc1-c1cc(N2CCOCC2)c2nccn2c1` [US11814384, Example 138], the half-inhibitory concentration (IC50) entry is “in the range around 5.5 nM”.
